{"source": "patent EP0968998A1", "about": "“Cosmetic compositions, ceramide analogues with anti-elastase activity and process for their preparation” (ELF ATOCHEM S.A., priority 1998, dated 2000)", "key": {"[1]": {"tested_on": "stratum corneum", "assay": "Skin barrier improvement: transepidermal (insensible) water loss (PIE), Servomed evaporimeter, cream applied to inner forearm", "assay_type": "in vivo, volontaires sains ayant une peau sèche", "conditions": "cream with 0,5 % (ex. 7, témoins), 1 % (ex. 4, 8), 5 % (ex. 6)", "source_text": "(§1) Les exemples qui suivent permettent d'illustrer l'invention. […] Les valeurs sont exprimées en nombre d'onde par centimètre. - Résonance magnétique nucléaire (RMN) Les spectres sont réalisés au moyen d'un appareil BRUCKER DRX 500, à 500 MHz (^1H) et 125 MHz (^13C) dans le DMSO-d6. La calibration de l'appareil est effectuée au moyen de DMSO. Les déplacements chimiques sont exprimés en ppm. […] On utilise le N-succinyl-(Ala)3-p-nitroanilide en solution dans le tétrahydrofurane et une solution d'élastase à 100 mg/ml dans un mélange de glycérol et de tampon acétate de sodium (50/50; v/v), pH5. L'activité de l'enzyme est mesurée à 37°C dans 100 mM de tampon Tris-HCI, pH8 contenant 0,01 % de Triton X-100 (volume/volume) et 0,02 % d'azide de sodium (poids/volume). Le céramide à tester, solubilisé dans le tétrahydrofurane (concentration en THF = 0,5 % en volume) est préincubé en présence de l'enzyme (0,05 mg/ml) dans le tampon pendant 5 minutes à 37°C. On ajoute le N-succinyl-(Ala)3-p-nitroanilide (concentration finale : 250 µM) et on mesure la libération de la p-nitroaniline dans une cuve en quartz par spectrophotométrie à 410 nm. La capacité inhibitrice du céramide est exprimée en pourcentage d'inhibition (% I) selon la relation : %I = (1 -(Vi)/(Vo))×100 [formula] dans laquelle Vi et Vo sont les vitesses d'apparition de la p-nitroaniline en présence et en absence d'inhibiteur respectivement. - Mesure de l'amélioration de la barrière cutanée a) mesure de la Perte Insensible en Eau (PIE) La mesure de la PIE permet de quantifier la très faible quantité d'eau qui diffuse passivement à travers le stratum corneum. Ce paramètre représente un très bon index de la fonction barrière du stratum corneum. Cette méthode est surtout utilisée pour contrôler l'efficacité de formules cosmétiques qui, contenant certains types de lipides sont capables de diminuer la PIE et, en conséquence, d'empêcher la déshydratation du stratum corneum. La sonde est laissée en contact de la peau pendant 2 minutes environ de façon à atteindre une position d'équilibre. PIE = D'(dP)/(dx)(gradient de pression de vapeur) [formula] Les valeurs sont exprimées en g/m^2/heure et permettent de calculer un delta de PIE = PIE (peau traitée) - PIE (peau témoin). L'appareil utilisé est un Evaporimètre EPI de Servomed. Les mesures sont effectuées sur deux groupes de 15 volontaires sains ayant une peau sèche, avant l'application du produit (t=0) et après l'application (t=0,5 heure, 1 heure, 3 heures et 6 heures) sur la face interne des deux avant-bras. L'analogue de céramide selon l'invention ou le céramide témoin est incorporé dans une crème ayant la composition suivante (en % en poids) :\n(§2) La teneur en analogue de céramide dans la crème est égale à 0,5 % (exemple 7), 1 % (exemples 4 et 8) et 5 % (exemple 6), et celle des céramides témoins (a) et (b) est égale à 0,5 %. La diminution des valeurs de PIE signifie une amélioration de la qualité de la barrière cutanée qui traduit un meilleur pouvoir retentionnel de l'eau au niveau de la couche cornée et donc une meilleure hydratation. b) hydratation cutanée L'eau peut être considérée comme un dipôle électrique capable de conduire l'électricité. Le transport d'électricité dans un champ donné est proportionnel à la quantité d'eau présente dans le stratum corneum. Plus une peau est riche en eau et plus le courant électrique passe rapidement entre 2 électrodes. Il existe donc un lien entre l'hydratation du stratum corneum et les modifications des propriétés électriques. Les mesures de capacitance, liée à la constante diélectrique de la peau, sont réalisées par le Cornéomètre Courage+Khazaka CM 200, dont la sonde présente une surface de contact avec la peau de 49 mm^2; cette sonde est appliquée avec une pression constante sur la surface cutanée à mesurer, et l'indice d'hydratation directement proportionnel au taux hydrique de surface est instantané."}, "[2]": {"tested_on": "stratum corneum", "assay": "Skin hydration: capacitance measurement (Corneometer Courage+Khazaka CM 200), hydration index, cream applied to forearm", "assay_type": "in vivo, volontaires sains ayant une peau sèche", "conditions": "cream with 0,5 % (ex. 7, témoins), 1 % (ex. 4, 8), 5 % (ex. 6)", "source_text": "as §1, §2"}, "[3]": {"conditions": "t=0 heure (before application, baseline)"}}, "data": [{"smiles": "CCCCCCCCCCCCCCCCCC(=O)NC(CC)(CO)COC(=O)CCCCCCCCCCCCCCCCC", "note": "(stereo not shown) [Exemple 4, 1-stéaroyl-2-éthyl-2-stéaroylamino-1,3-propanediol]", "values": [{"measurement": "Perte Insensible en Eau (PIE) M±s", "setting": "[1]; t=0,5 heure after application", "value": "3,89±0,85 g/m^2/heure"}, {"measurement": "Perte Insensible en Eau (PIE) M±s", "setting": "[1]; [3]", "value": "4,52±0,79 g/m^2/heure"}, {"measurement": "Perte Insensible en Eau (PIE) M±s", "setting": "[1]; t=1 heure after application", "value": "2,95±1,15 g/m^2/heure"}, {"measurement": "Perte Insensible en Eau (PIE) M±s", "setting": "[1]; t=3 heures after application", "value": "4,30±0,97 g/m^2/heure"}, {"measurement": "Perte Insensible en Eau (PIE) M±s", "setting": "[1]; t=6 heures after application", "value": "4,00±1,24 g/m^2/heure"}, {"measurement": "Indice d'Hydratation (IH) M±s", "setting": "[2]; t=0,5 heure after application", "value": "66,87±7,50"}, {"measurement": "Indice d'Hydratation (IH) M±s", "setting": "[2]; [3]", "value": "64,69±9,04"}, {"measurement": "Indice d'Hydratation (IH) M±s", "setting": "[2]; t=1 heure after application", "value": "65,56±6,96"}, {"measurement": "Indice d'Hydratation (IH) M±s", "setting": "[2]; t=3 heures after application", "value": "62,31±7,17"}, {"measurement": "Indice d'Hydratation (IH) M±s", "setting": "[2]; t=6 heures after application", "value": "62,91±7,78"}]}]}
